Measured values from patent US12521393B2, “Cytotoxicity targeting chimeras for CCR2-expressing cells” (GLAXOSMITHKLINE INTELLECTUAL PROPERTY DEVELOPMENT LIMITED, priority 2021, dated 2026).

How the values were obtained:
[1] = tested on: endogenous target monocytes in human PBMC; experiment: PBMC ex vivo monocyte depletion flow cytometry assay (Example 200); type: cell-based; conditions: with anti-cotinine antibody (SEQ ID NO: 11/12), 18-24 hours, EC50 in molar, read-out: Ex Vivo Depletion Assay pEC50 (converted)
Procedure, shortened: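 Monocyte depletion is reported as pEC50, averaged or given individually across runs, and read by flow cytometry staining CD45, CD14 and CD4 with a viability dye. Compounds, diluted four-fold over 11 points from 1 mM DMSO stocks, were combined with 30 μg/mL Fc-enhanced anti-cotinine antibody and human PBMC, then incubated 18-24 h at 37° C.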

[2] = tested on: CCR2 expressing cells (CD11b+Ly6c+Hi) in peripheral blood; experiment: In vivo depletion assay, flow cytometry of peripheral blood (Example 201); set-up: species or system human CCR2 knock-in mice (C57 background); conditions: hCCR2 knock-in mice, IV 0.1 mpk compound + 10 mpk anti-cotinine antibody (SEQ ID NO: 13/14), peripheral blood at 48 hr
Procedure, shortened: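 Mice dosed with compound formulated in saline/DMSO/PBS, with anti-cotinine antibody (rabbit variable region, mouse IgG2a Fc) where required, pre-incubated 30 min at room temperature. Terminal peripheral blood RBC-lysed, Fc-blocked, stained for CD45, CD3, CD11b, Ly6C, human CCR2 and 7AAD; percent depletion of CD11b+Ly6c+Hi cells determined by flow cytometry.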

Compound | EC50 [1] [nM] | % Depletion of CCR2 expressing cells [2] [%]
CC(C)N(C)[C@@H]1CC[C@H](N2CC[C@H](Nc3ncnc4ccc(C(F)(F)F)cc34)C2=O)[C@H](NC(=O)CCCN2CCC3(CCN(CCCNC(=O)[C@H]4CC(=O)N(C)[C@@H]4c4cccnc4)CC3)CC2)C1 [Example 191, (2S,3S)-N-(3-(9-(4-(((1R,2S,5R)-5-(Isopropyl(methyl)amino)-2-((S)-2-oxo-3-((6-(trifluoromethyl)quinazolin-4-yl)amino)pyrrolidin-1-yl)cyclohexyl)amino)-4-oxobutyl)-3,9-diazaspiro[5.5]undecan-3-yl)propyl)-1-methyl-5-oxo-2-(pyridin-3-yl)pyrrolidine-3-carboxamide] | 0.501 | 69
CC(C)N(C)[C@@H]1CC[C@H](N2CC[C@H](Nc3ncnc4ccc(C(F)(F)F)cc34)C2=O)[C@H](NC(=O)[C@H]2CC[C@H](C(=O)NCCCOCCCCOCCCNC(=O)[C@H]3CC(=O)N(C)[C@@H]3c3cccnc3)CC2)C1 [Example 194, (1r,4R)-N^1-((1R,2S,5R)-5-(Isopropyl(methyl)amino)-2-((S)-2-oxo-3-((6-(trifluoromethyl)quinazolin-4-yl)amino)pyrrolidin-1-yl)cyclohexyl)-N^4-(3-(4-(3-((2S,3S)-1-methyl-5-oxo-2-(pyridin-3-yl)pyrrolidine-3-carboxamido)propoxy)butoxy)propyl)cyclohexane-1,4-dicarboxamide] | 0.631 | 96
